Data taken from US11332716B2, “Methods and compositions for producing pancreatic beta cells” (The Regents of the University of California, priority 2015, dated 2022).

Tests used:
[1] = test system: Dox-inducible secondary mouse embryonic fibroblasts (MEFs); assay: Direct reprogramming of fibroblasts into definitive endoderm-like cells (Sox17/Foxa2); type: cell-based; settings: treatment in first two steps
Description: To extend and test the iPSC-factor-based lineage-specific reprogramming paradigm to endoderm, a two-step process was first devised to directly reprogram secondary MEF cells into definitive endoderm-like cells (DELCs). The first step (step I) involved culturing secondary MEF cells in media (Med-I) that is supplemented with 4 μg/ml Dox to initiate epigenetic activation. The second step (step II) was culturing the epigenetically activated cells in Med-II supplemented with 50 ng/ml Activin A and 1 mM LiCl (hereafter referred to as Activin/Li). […] Hereafter these Sox17/Foxa2 double-positive cells are referred to as definitive endoderm-like cells (DELCs).
To test this hypothesis, conditions were evaluated in which definitive endoderm induction factors (Activin/Li) were added to fibroblasts either after (Approach-I) or during (Approach II) iPSC factor expression, using Sox17 and Foxa2 expression as a measure of DELC induction (FIG. 1A).

[2] = test system: pancreatic progenitor-like cells (PPLCs); assay: Maturation of PPLCs into pancreatic-like cells (insulin/Pdx1, day 25); settings: 5 μM SB203580 or 280 μM pVc used individually
[3] = test system: Dox-inducible secondary mouse embryonic fibroblasts (MEFs); assay: Pdx1+/Nkx6.1+ colony number on day 16 after small molecules in first/second step; settings: 1 μM Bix-01294 D0 to D6; 280 μM pVc D0 to D12; readout day 16
[4] = test system: definitive endoderm-like cells (DELCs); assay: Induction of pancreatic progenitor-like cells from DELCs (Pdx1/Nkx6.1 staining); type: cell-based, mouse; settings: 400-compound collection; confirmed in larger-well cultures
Description: At the end of treatment, lineage specific markers were analyzed by immunostaining and/or real-time.
Primary antibodies used were Sox17 (R&D), Foxa2 (Millipore), Pdx1 (R&D), Hnf6 (Santa Cruz), Pax6 (Covance), Sox9 (Santa Cruz), Nkx6.1 (Developmental Studies Hybridoma Bank), Insulin (Dako), Glucagon (Sigma), Somatostatin (Abeam), Amylase (Abeam), and CK19 (Abcam). Nuclei were visualized by DAPI (Sigma-Aldrich) staining Images were captured using a Nikon Eclipse TE2000-U microscope.
An available drug collection of 400 compounds in the 48well format was screened to identify small molecules that induce high percentages of Pdx 1^+/NKx6.1^+ cells in DELC populations. Med-III medium (DMEM supplemented with 1 kB27, 2 mM GLUTAMAX™) was used as the basal condition and double staining of Pdx1 and Nkx 6.1 at 4 days post-induction was used as the readout.

[5] = molecular target: p38 MAPK (Homo sapiens, UniProt Q16539); settings: read-out: IC50 for p38 MAPK; cited from earlier work
p38 MAPK, sequence (Q16539 whole entry): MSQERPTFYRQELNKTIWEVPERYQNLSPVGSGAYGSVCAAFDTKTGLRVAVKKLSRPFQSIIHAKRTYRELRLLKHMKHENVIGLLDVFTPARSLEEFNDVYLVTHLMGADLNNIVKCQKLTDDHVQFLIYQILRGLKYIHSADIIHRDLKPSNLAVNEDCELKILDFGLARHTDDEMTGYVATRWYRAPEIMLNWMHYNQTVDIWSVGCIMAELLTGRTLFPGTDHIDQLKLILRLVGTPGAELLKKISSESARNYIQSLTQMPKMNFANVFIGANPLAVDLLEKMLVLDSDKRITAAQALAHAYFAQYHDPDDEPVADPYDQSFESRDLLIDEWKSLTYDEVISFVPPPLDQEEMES

[6] = molecular target: T1, Axl (Homo sapiens, UniProt P30530); settings: 1 μM; cited from earlier work
T1 sequence (P30530 26-894): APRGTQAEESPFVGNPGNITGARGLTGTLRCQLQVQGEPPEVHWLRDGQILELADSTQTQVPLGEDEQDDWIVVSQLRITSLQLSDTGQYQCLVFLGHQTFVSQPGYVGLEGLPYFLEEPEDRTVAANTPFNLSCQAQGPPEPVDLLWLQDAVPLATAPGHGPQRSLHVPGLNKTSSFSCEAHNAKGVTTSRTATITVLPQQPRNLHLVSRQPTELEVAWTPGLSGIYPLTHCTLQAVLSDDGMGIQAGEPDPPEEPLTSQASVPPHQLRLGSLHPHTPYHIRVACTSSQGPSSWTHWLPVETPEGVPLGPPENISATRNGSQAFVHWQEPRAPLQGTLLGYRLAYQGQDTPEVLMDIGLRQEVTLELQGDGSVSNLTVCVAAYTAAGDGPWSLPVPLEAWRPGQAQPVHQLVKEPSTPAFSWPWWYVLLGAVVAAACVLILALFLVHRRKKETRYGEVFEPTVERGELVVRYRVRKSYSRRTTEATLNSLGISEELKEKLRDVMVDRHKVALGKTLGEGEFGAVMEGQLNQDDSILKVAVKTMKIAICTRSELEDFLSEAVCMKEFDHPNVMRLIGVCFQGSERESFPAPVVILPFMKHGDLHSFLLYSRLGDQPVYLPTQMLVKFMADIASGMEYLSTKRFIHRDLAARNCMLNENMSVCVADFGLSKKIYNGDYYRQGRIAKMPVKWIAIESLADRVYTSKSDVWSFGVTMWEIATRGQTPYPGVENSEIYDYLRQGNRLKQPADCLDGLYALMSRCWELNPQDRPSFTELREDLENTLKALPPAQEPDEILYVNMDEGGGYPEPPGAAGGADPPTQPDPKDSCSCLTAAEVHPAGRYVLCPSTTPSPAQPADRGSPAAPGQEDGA

[7] = test system: HDAC activity in HeLa extracts; settings: read-out: IC50 for inhibition of HDAC activity; cited from earlier work
[8] = test system: pancreatic endodermal progenitor (cPE) cells; assay: Protocol 2 maturation of cPE cells into cPB cells (INSULIN mRNA, C-peptide cells)
[9] = test system: pancreatic endodermal progenitor cells (cPE cells); assay: Maturation of cPE cells into C-peptide positive cells, chemical screen; settings: added individually to basal pancreatic differentiation media
[10] = test system: Src-dependent cell proliferation; settings: cited from earlier work
[11] = test system: histone deacetylases (HDACs); settings: isoform not stated; read-out: IC50 (histone deacetylase); cited from earlier work
[12] = test system: presenilase; settings: higher concentrations (20-400 μM); cited from earlier work
[13] = molecular target: γ-secretase; settings: read-out: IC50 for total β-amyloid; cited from earlier work
[14] = test system: MEL1 INS GFP/W hESC spheres; assay: hESC suspension differentiation, flow cytometry of PDX1 and NKX6.1; type: cell-based, human; settings: day 9.5
Excerpt: Treatments consisted of combinations of Cyclopamine (C), Noggin (N), and retinoic acid (R) during days 6-8, followed by subdivision of each condition into three treatment groups during day 9-9.5. Group 1) continuation of day 6-8 treatment; Group 2) treatment with EGF and KGF (EK); Group 3) treatment with EGF, KGF, and Noggin (EKN). […] Data shown are representatives of results obtained in two independent experiments. […] FIG. 17B: Quantification of PDX1 (orange gate) and NKX6.1 (blue gate) protein expressing cells in individual conditions after 9.5 days of differentiation.
Suspension-based differentiations were carried out as follows. Briefly, confluent cultures were dissociated into single cell suspension by incubation with TrypLE (Gibco). […] To induce definitive endoderm differentiation, aggregates were collected 24 hours later in a 50 ml falcon tube, allowed to settle by gravity, washed once with PBS and re-suspended in d1 media (RPMI (Gibco) containing 0.2% FBS, 1:5000 ITS (Gibco), 100 ng/ml Activin A, and 50 ng/ml WNT3a (R&D systems)). Clusters from 3 wells were combined into 2 wells at this point and distributed into fresh low-attachment plates in 5.5 ml d1 media. Media thereafter was changed daily, by removing either 4.5 ml media (at the end of d1) or 5.5 ml media the following days and adding back 5.5 ml fresh media until day 9. After day 9, only 5 ml of media was removed and added daily.
Briefly, spheres were collected and allowed to settle by gravity. Clusters were washed once in PBS and dissociated by gentle pipetting after 12-15 minutes incubation in Accumax (Innovative Cell Technologies). For sorting, cell suspensions were filtered and re-suspended in FACS buffer consisting of phosphate-buffered saline (PBS) (UCSF cell culture facility) containing 2 mM EDTA (Ambion) and 1% BSA (Sigma). Dead cells were excluded by DAPI (Sigma) staining Cell sorting was performed on a FACS Aria II (BD Bioscience). […]

[15] = molecular target: SAPK2/p38 (Homo sapiens, UniProt Q16539); settings: cited from earlier work
SAPK2/p38, sequence (Q16539 whole entry): as the sequence (Q16539 whole entry) above

[16] = test system: MKN45, U87MG, MDA-MB-231, COLO205, and A549 tumor cells; settings: 20 mg/kg-60 mg/kg; c-Met-driven or non-c-Met-driven xenografts; cited from earlier work
[17] = test system: Human foreskin fibroblasts (CRL-2097); assay: Conversion of human fibroblasts into definitive endodermal progenitor cells (FOXA2 positive colonies); settings: Parnate, RG108 condition

Compound: 2-Phospho-L-ascorbic acid trisodium salt [pVc]
- numbers of Sox17 and Foxa2 single positive and double positive cells [1]: no significant influence
- number of insulin+/Pdx1+ double-positive cells [2]: significantly increased
- number of Pdx1+/Nkx6.1+ colonies [3]: ~4 fold
- screen result: increase of Pdx1 and/or Nkx6.1 expression [4]: Confirmed hits

Compound: Cc1cccc(-c2nn(C(=S)Nc3ccccc3)cc2-c2ccnc3ccccc23)n1 [A83-01, 3-(6-Methyl-2-pyridinyl)-N-phenyl-4-(4-quinolinyl)-1H-pyrazole-1-carbothioamide]
- screen result: increase of Pdx1 and/or Nkx6.1 expression [4]: Confirmed hits

Compound: Cc1cccc(-c2n[nH]cc2-c2ccc3ncccc3n2)n1 [ALK5 inhibitor II, 2-(3-(6-methylpyridine-2-yl)-1H-pyrazol-4-yl)-1,5-naphthyridine]
- IC50 [5]: > 16 µM

Compound: S=C(NCc1ccc2c(c1)OCO2)N1CCN(c2ncnc3c2oc2ccccc23)CC1 [Amuvatinib]
- tyrosine phosphorylation of AXL [6]: inhibits tyrosine phosphorylation of AXL

Compound: Nc1ccccc1NC(=O)CCCCCCC(=O)Nc1ccccc1 [BML-210, N1-(2-aminophenyl)-N8-phenyl-octanediamide]
- IC50 [7]: ~80 µM

Compound: COC(=O)C1=C(C)NC(C)=C([N+](=O)[O-])C1c1ccccc1C(F)(F)F (stereo not drawn) [BayK-8644, 3-pyridinecarboxylic acid, 1,4-dihydro-2,6-dimethyl-5-nitro-4-(2-(trifluoromethyl)phenyl), methyl ester]
- number of C-peptide positive cells co-expressing PDX1 and NKX6.1 [8]: increased
- expression of the INSULIN gene (mRNA) ([8]; day 21, compared to DMSO controls): promoted expression
- percentage of C-peptide positive cells, individual supplementation [9]: effective in increasing

Compound: COc1cc2nc(N3CCCN(C)CC3)nc(NC3CCN(Cc4ccccc4)CC3)c2cc1OC [Bix-01294]
- numbers of Sox17 and Foxa2 single positive and double positive cells [1]: no significant influence
- number of Pdx1+/Nkx6.1+ colonies [3]: about 3 fold

Compound: COc1cc(Nc2c(C#N)cnc3cc(OCCCN4CCN(C)CC4)c(OC)cc23)c(Cl)cc1Cl [Bosutinib]
- IC50 [10]: 100 nM

Compound: CC1(C)NC(=O)C(CCCCCC(=O)[C@H]2CO2)NC(=O)C2CCCN2C(=O)[C@@H](Cc2ccccc2)NC1=O (stereo partly drawn) [Chlamydocin, (3R)-3-benzyl-6,6-dimethyl-9-[6-[(2R)-oxiran-2-yl]-6-oxohexyl]-1,4,7,10-tetrazabicyclo[10.3.0]pentadecane-2,5,8,11-tetrone]
- IC50 [11]: ~0.15 nM

Compound: C[C@H](NC(=O)Cc1cc(F)cc(F)c1)C(=O)N[C@H]1N=C(c2ccccc2)c2ccccc2N(C)C1=O [Compound E]
- effect on presenilase activity [12]: only weakly affects
- IC50 [13]: 0.3 nM
- percentage of C-peptide positive cells, individual supplementation [9]: effective in increasing

Compound: CC1=C2C[C@H]3[C@@H](CC=C4C[C@@H](O)CC[C@@]43C)[C@@H]2CC[C@]12O[C@@H]1C[C@H](C)CN[C@H]1[C@H]2C [Cyclopamine]
- generation of PDX1+ cells over base media alone ([14]; alone, conditions 2 and 3): did not result in enhanced generation

Compound: NC(=O)c1ccc(-c2nc(-c3ccc4c(c3)OCCO4)c(-c3ccccn3)[nH]2)cc1 [D 4476, 4-[4-(2,3-Dihydro-1,4-benzodioxin-6-yl)-5-(2-pyridinyl)-IH-imidazol-2-yl]benzamide]
- selectivity over SAPK2/p38 [15]: greater than 20 fold

Compound: CC1NC(=O)C(C)NC(=O)C2CCCN2C(=O)C(CCCCCCC(=O)C2CO2)NC1=O [HC Toxin, (6R,9S,14aR)-3,6R-dimethyl-9S-(7-((S)-oxiran-2-yl)-7-oxoheptyl)decahydropyrrolo[1,2-a][1,4,7,10]tetraazacyclododecine-1,4,7, 10-tetranone]
- IC50 [11]: 30 nM

Compound: Cc1c(C(=O)Nc2ccc(N3C[C@@H](C)O[C@@H](C)C3)nc2)cccc1-c1ccc(OC(F)(F)F)cc1 [LDE225]
- screen result: increase of Pdx1 and/or Nkx6.1 expression [4]: Confirmed hits

Compound: Nc1ccccc1NC(=O)c1ccc(CNc2nccc(-c3cccnc3)n2)cc1 [MGCD0103, N-(2-aminophenyl)-4-[[(4-pyridin-3-ylpyrimidin-2-yl)amino]methyl]benzamide]
- IC50 [11]: ~100 nM

Compound: Cn1cnc(-c2cc3nccc(Oc4ccc(NC(=S)NC(=O)Cc5ccccc5)cc4F)c3s2)c1 [MGCD-265]
- tumor growth and c-Met signaling [16]: inhibits tumor growth and c-Met signaling

Compound: Nc1ccccc1NC(=O)c1ccc(CNC(=O)OCc2cccnc2)cc1 [MS-27-275]
- IC50 [11]: 100 to 1000 nM

Compound: CCNC(=O)[C@H]1O[C@@H](n2cnc3c(N)ncnc32)C(O)C1O (stereo partly drawn) [NECA, 5′-N-ethylcarboxamidoadenosine]
- increase of conversion rate over the basal protocol ([17]; NECA added to NaB): 5 fold
- further increase of conversion rate over the improved condition ([17]; added to NaB): 2 fold

Compound: C[S+]([O-])c1ccc(-c2nc(-c3ccc(F)cc3)c(-c3ccncc3)[nH]2)cc1 (stereo not drawn) [SB203580, 4-(4-fluorophenyl)-2-(4-methylsulfinylphenyl)-5-(4-pyridyl)-1H-imidazole]
- number of insulin+/Pdx1+ double-positive cells [2]: significantly increased

Compound: CC(/C=C/C(=O)NO)=C\[C@@H](C)C(=O)c1ccc(N(C)C)cc1 [Trichostatin A, (R,2E,4E)-6-(4-(dimethylamino)benzoyl)-N-hydroxy-4-methylhepta-2,4-dienamide]
- IC50 [11]: ~1.8 nM

Compound: CC1=C(/C=C/C(C)=C/C=C/C(C)=C/C(=O)O)C(C)(C)CCC1 [retinoic acid]
- PDX1 positive progenitors ([14]; days 6-8, alone or in combination (conditions 4, 5, 6), group 1): > 88%
